From patent publication US20210363545A1, “GENETIC SELECTION MARKERS BASED ON ENZYMATIC ACTIVITIES OF THE PYRIMIDINE SALVAGE PATHWAY” (priority 2018, published 2021)
In brackets after ≈: the same amount, converted by molar mass. Where two headings read alike, the source gives them in different places.

Legend:
[1] = system: A. fumigatus; assay: broth microdilution susceptibility testing according to EUCAST; format: cell-based, Aspergillus fumigatus
Description: (§1) To identify encoded A. fumigatus FcyB, FcyA, Uprt, Uk and CntA activities in further fungal species, it was searched for A. fumigatus orthologs in biotechnology-relevant species (Aspergillus niger, Aspergillus oryzae, P. chrysogenum, Komagataella phaffii alias Pichia pastoris, S. cerevisiae, Trichoderma reesei) and in virulence-relevant species (Candida albicans, Cryptococcus neoformans, F. oxysporum). Orthologs to A. fumigatus proteins with an overall identity 40% were considered as putative orthologs if activities could be confirmed by susceptibility testing following a broth microdilution based method according to EUCAST (see Table 10).

[2] = system: C. albicans; assay: as above; format: cell-based, Candida albicans
Description: as §1

[3] = system: T. reesei; assay: as above; format: cell-based, Trichoderma reesei
Description: as §1

[4] = system: S. cersvisiae; assay: as above; format: cell-based, S. cerevisiae
Description: as §1

[5] = system: C. neoformans; assay: as above; format: cell-based, Cryptococcus neoformans
Description: as §1

[6] = system: P. pastoris; assay: as above; format: cell-based, Komagataella phaffii alias Pichia pastoris
Description: as §1

[7] = system: A. oryzae; assay: as above; format: cell-based, Aspergillus oryzae
Description: as §1

[8] = system: A. fumigatus wt (A1160P+); assay: plate growth assay based susceptibility testing on solid AMM; format: cell-based, Aspergillus fumigatus; details: for pH dependence of activity: A. fumigatus
Description: (§2) pH 5 transcriptionally activates fcyB mediated uptake of 5FC. […] Inactivation of fcyB leads to resistance at 10 μg/ml 5FC at pH 5. Inactivation of fcyB leads to resistance on AMM (AMM Composition: 55.5 mM D-glucose, 20.0 mM ammonium tartrate, 7 mM KCl, 2.1 mM MgSO4 x 7H2O, 11.2 mM KH2PO4, 0.09 μM Na2B4O7 x 10H2O, 1 μM CuSO4 x 5H2O, 10 μM FeSO4 x 7H2O, 4.5 μM MnSO4 x 4H2O, 3.1 μM Na2MoO4 x 10H2O, […] ZnSO4 x 7H2O, 0.7% Agar; finally adjusted to pH 6.5 using NaOH before autoclaving) supplemented with 10 μg/ml 5FC and 100 mM citrate buffer pH 5.
(§3) Plate growth assay based susceptibility testing of A. fumigatus and P. chrysogenum was carried out using solid AMM, for F. oxysporum solid PDA was employed. Low pH medium contained 100 mM citrate buffer (pH5), neutral pH medium 100 mM MOPS buffer (pH7). For strains carrying PxylP tunable reporter genes (sGFP, mKate2PER, sGFPMIT, lacZ), 0.5% xylose was supplemented to the medium to induce gene expression.
(§4) Among other fungal species, A. fumigatus is susceptible to 5FC (Te Dorsthorst et al., Antimicrob Agents Chemother 48, 3147-3150 (2004); Te Dorsthorst et al., Antimicrobial agents and chemotherapy 49, 3341-3346 (2005)) and is therefore anticipated to harbor genes encoding CD and UPRT in addition to 5FC uptake. […] To analyze their role in 5FC as well as 5FU activity, fcyA and uprt was inactivated in the A. fumigatus strain A1160P+ (Fraczek, et al., The Journal of antimicrobial chemotherapy 68, 1486-1496 (2013)), termed wt here, using hygromycin and phleomycine resistance based deletion cassettes. Due to the interdependency of 5FC activity and environmental pH (Gsaller et al., Antimicrob Agents Chemother 62 (2018); Te Dorsthorst et al., Antimicrob Agents Chemother 48, 3147-3150 (2004)) the contribution of both enzymes as well as FcyB to 5FC and 5FU activity at both pH5 and pH7 was investigated.

[9] = system: A. fumigatus ΔfcyB; assay: as above; format: cell-based, Aspergillus fumigatus; details: for growth of ΔfcyB: 100 μg/ml
Description: as §2, §3, §4

[10] = system: A. fumigatus Δuprt; assay: as above; format: cell-based, Aspergillus fumigatus; details: for growth of Δuprt strains: 200 μg/ml; for growth after inactivation of uprt: AMM supplemented with 100 μg/ml, pH7
Description: Furthermore, 5-FU supplementation inhibits ΔfcyB (see FIG. 4). Inactivation of uprt allows growth of A. fumigatus on AMM supplemented with 100 μg/ml 5FC or 5FU at pH7 (see FIG. 4). At concentrations 10-500 μg/ml 5FC or 5FU, independent of the pH (200 μg/ml 5FC as well as 5FU were also tested and the Δuprt strains grow).
as §3
(§5) Coding sequences of fcyA and uprt were disrupted in wt (A1160P+) using hygromycin B and zeocin resistance cassettes, respectively. Therefore, deletion constructs comprising approximately 1 kb of 5′ and 3′ NTR linked to the central antibiotic resistance cassette were generated using fusion PCR as previously described (Fraczek, et al., The Journal of antimicrobial chemotherapy 68, 1486-1496 (2013)). Correct integration of constructs was confirmed by Southern analysis (see FIG. 14).
as §4

[11] = system: A. fumigatus ΔfcyA; assay: as above; format: cell-based, Aspergillus fumigatus
Description: as §3, §5
Among other fungal species, A. fumigatus is susceptible to 5FC (Te Dorsthorst et al., Antimicrob Agents Chemother 48, 3147-3150 (2004); Te Dorsthorst et al., Antimicrobial agents and chemotherapy 49, 3341-3346 (2005)) and is therefore anticipated to harbor genes encoding CD and UPRT in addition to 5FC uptake. […]

[12] = system: F. oxysporum; assay: broth microdilution susceptibility testing according to EUCAST; format: cell-based, Fusarium oxysporum
Description: as §1

[13] = system: A. niger; assay: as above; format: cell-based, Aspergillus niger
Description: as §1

[14] = system: P. chrysogenum; assay: as above; format: cell-based, Penicillium chrysogenum
Description: as §1

[15] = system: A. fumigatus with inactivated cntA; assay: growth on AMM supplemented with 5-FUR; format: cell-based, Aspergillus fumigatus; details: AMM supplemented with 100 μg/ml
[16] = system: A. fumigatus with inactivated uk; assay: growth on AMM supplemented with 5-FUR; format: cell-based, Aspergillus fumigatus; details: AMM supplemented with 100 μg/ml
[17] = up to 100 μg/ml, regardless of the pH
[18] = Aspergillus fumigatus, pH 5, read-out: MIC
[19] = Aspergillus fumigatus, pH 7, read-out: MIC
[20] = Candida albicans, pH 5, read-out: MIC
[21] = Candida albicans, pH 7, read-out: MIC
[22] = Trichoderma reesei, pH 5, read-out: MIC
[23] = Trichoderma reesei, pH 7, read-out: MIC
[24] = Saccharomyces cerevisiae, pH 5, read-out: MIC
[25] = Saccharomyces cerevisiae, pH 7, read-out: MIC
[26] = Cryptococcus neoformans, pH 5, read-out: MIC
[27] = Cryptococcus neoformans, pH 7, read-out: MIC
[28] = Komagataella pastoris, pH 5, read-out: MIC
[29] = Komagataella pastoris, pH 7, read-out: MIC
[30] = Aspergillus oryzae, pH 5, read-out: MIC
[31] = Aspergillus oryzae, pH 7, read-out: MIC
[32] = Fusarium oxysporum, pH 5, read-out: MIC
[33] = Fusarium oxysporum, pH 7, read-out: MIC
[34] = Aspergillus niger, pH 5, read-out: MIC
[35] = Aspergillus niger, pH 7, read-out: MIC
[36] = Penicillium chrysogenum, pH 5, read-out: MIC
[37] = Penicillium chrysogenum, pH 7, read-out: MIC

## Nc1nc(=O)[nH]cc1F [5FC, 5-flucytosine]
[1]; pH 5
  MIC: 0.39 µg/mL (≈ 3.02 µM)
[1]; pH 7
  MIC: 400 µg/mL (≈ 3100 µM)
[2]; pH 5
  MIC: 0.39 µg/mL (≈ 3.02 µM)
[2]; pH 7
  MIC: 0.39 µg/mL (≈ 3.02 µM)
[3]; pH 5
  MIC: >400 µg/mL
[3]; pH 7
  MIC: >400 µg/mL
[4]; pH 5
  MIC: 0.39 µg/mL (≈ 3.02 µM)
[4]; pH 7
  MIC: 0.39 µg/mL (≈ 3.02 µM)
[5]; pH 5
  MIC: 0.39 µg/mL (≈ 3.02 µM)
[5]; pH 7
  MIC: 25 µg/mL (≈ 194 µM)
[6]; pH 5
  MIC: 0.39 µg/mL (≈ 3.02 µM)
[6]; pH 7
  MIC: 0.39 µg/mL (≈ 3.02 µM)
[7]; pH 5
  MIC: 0.39 µg/mL (≈ 3.02 µM)
[7]; pH 7
  MIC: 400 µg/mL (≈ 3100 µM)
[8]; 10 μg/ml, AMM with 100 mM citrate buffer pH 5
  susceptibility of WT isolate: highly susceptible
[8]
  pH dependence of activity: much more active at pH5
[8]; wt, pH5, plate growth
  level that blocked wt growth: ≥ 1 µg/mL
[8]; wt, pH7, plate growth
  level required to block wt growth: 100 µg/mL
[9]; 10 μg/ml, pH 5, AMM
  resistance after inactivation of fcyB: resistance
[9]; pH5
  growth of ΔfcyB: not able to grow
[9]; pH7
  growth of ΔfcyB: severe growth inhibition
[10]
  growth of Δuprt strains: grow
  growth after inactivation of uprt: allows growth
[10]; [17]
  resistance of Δuprt: full resistance
[11]; [17]
  resistance of ΔfcyA: full resistance
[12]; pH 5
  MIC: >400 µg/mL
[12]; pH 7
  MIC: >400 µg/mL
[13]; pH 5
  MIC: 0.39 µg/mL (≈ 3.02 µM)
[13]; pH 7
  MIC: 6.25 µg/mL (≈ 48.4 µM)
[14]; pH 5
  MIC: 0.39 µg/mL (≈ 3.02 µM)
[14]; pH 7
  MIC: 3.12 µg/mL (≈ 24.2 µM)

## O=c1[nH]cc(F)c(=O)[nH]1 [5FU, 5-fluorouracil]
[1]; [18]
  MIC: 50 µg/mL (≈ 384 µM)
[1]; [19]
  MIC: > 400 µg/mL
[2]; [20]
  MIC: 50 µg/mL (≈ 384 µM)
[2]; [21]
  MIC: 0.39 µg/mL (≈ 3 µM)
[3]; [22]
  MIC: 100 µg/mL (≈ 769 µM)
[3]; [23]
  MIC: 0.39 µg/mL (≈ 3 µM)
[4]; [24]
  MIC: 0.8 µg/mL (≈ 6.15 µM)
[4]; [25]
  MIC: 100 µg/mL (≈ 769 µM)
[5]; [26]
  MIC: 6.25 µg/mL (≈ 48 µM)
[5]; [27]
  MIC: 12.5 µg/mL (≈ 96.1 µM)
[6]; [28]
  MIC: 0.39 µg/mL (≈ 3 µM)
[6]; [29]
  MIC: > 400 µg/mL
[7]; [30]
  MIC: 200 µg/mL (≈ 1540 µM)
[7]; [31]
  MIC: 12.5 µg/mL (≈ 96.1 µM)
[8]; 100 μg/ml, pH5 as well as pH7
  growth of wt: blocked growth
[8]
  pH dependence of activity: pH independent
[8]; typically, AMM
  concentrations that fully inhibit A. fumigatus growth: > 100 µg/mL
[9]; pH5 as well as pH7
  growth of ΔfcyB: blocked growth
[9]; solid Aspergillus minimal medium, FIG. 4
  effect of supplementation on ΔfcyB: inhibits
[10]; 100 μg/ml, pH5 as well as pH7
  resistance of Δuprt: high resistance
[10]
  growth of Δuprt strains: grow
  growth after inactivation of uprt: allows growth
[11]; 100 μg/ml, pH5 as well as pH7
  growth of ΔfcyA: blocked growth
[12]; [32]
  MIC: 400 µg/mL (≈ 3080 µM)
[12]; [33]
  MIC: > 400 µg/mL
[13]; [34]
  MIC: 50 µg/mL (≈ 384 µM)
[13]; [35]
  MIC: 0.39 µg/mL (≈ 3 µM)
[14]; [36]
  MIC: 3.12 µg/mL (≈ 24 µM)
[14]; [37]
  MIC: 3.12 µg/mL (≈ 24 µM)

## O=c1[nH]c(=O)n([C@@H]2O[C@H](CO)[C@@H](O)[C@H]2O)cc1F [5FUR, 5-fluorouridine]
[1]; [18]
  MIC: 6.25 µg/mL (≈ 23.8 µM)
[1]; [19]
  MIC: > 400 µg/mL
[2]; [20]
  MIC: 0.39 µg/mL (≈ 1.49 µM)
[2]; [21]
  MIC: 0.39 µg/mL (≈ 1.49 µM)
[3]; [22]
  MIC: 0.39 µg/mL (≈ 1.49 µM)
[3]; [23]
  MIC: 0.39 µg/mL (≈ 1.49 µM)
[4]; [24]
  MIC: 6.25 µg/mL (≈ 23.8 µM)
[4]; [25]
  MIC: 25 µg/mL (≈ 95.3 µM)
[5]; [26]
  MIC: 3.12 µg/mL (≈ 11.9 µM)
[5]; [27]
  MIC: 12.5 µg/mL (≈ 47.7 µM)
[15]
  resistance after inactivation of cntA: significantly increases resistance
[6]; [28]
  MIC: 0.39 µg/mL (≈ 1.49 µM)
[6]; [29]
  MIC: > 400 µg/mL
[7]; [30]
  MIC: 6.25 µg/mL (≈ 23.8 µM)
[7]; [31]
  MIC: 12.5 µg/mL (≈ 47.7 µM)
[8]
  pH dependence of activity: pH independent
[8]; AMM
  concentrations that significantly inhibit A. fumigatus growth: > 100 µg/mL
[16]
  resistance after inactivation of uk: increases resistance
[12]; [32]
  MIC: > 400 µg/mL
[12]; [33]
  MIC: > 400 µg/mL
[13]; [34]
  MIC: 0.8 µg/mL (≈ 3.05 µM)
[13]; [35]
  MIC: 0.39 µg/mL (≈ 1.49 µM)
[14]; [36]
  MIC: 3.12 µg/mL (≈ 11.9 µM)
[14]; [37]
  MIC: 3.12 µg/mL (≈ 11.9 µM)
